Test results published in patent US10479780B2, “Aminopyrazole derivatives” (Chugai Seiyaku Kabushiki Kaisha, priority 2015, dated 2019).

Legend:
Format in all cases: biochemical
human Lck enzyme = biological target: T1, human Lck enzyme (Homo sapiens, UniProt P06239); experiment: Lck enzyme inhibitory activity (time-resolved fluorometry, biotinylated peptide phosphorylation); conditions: read-out: LCK_IC50
T1 construct: purchased Carna Biosciences, Inc. 08-170
Summary of the method: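 Readout pairs a europium cryptate-labelled anti-phosphotyrosine antibody with XL665-streptavidin, measured by time-resolved fluorescence. IC50 derived from percent inhibition against untreated controls.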

human Yes1 enzyme = biological target: T2, human Yes1 enzyme (Homo sapiens, UniProt P07947); experiment: Yes1 enzyme inhibitory activity (time-resolved fluorometry, biotinylated peptide phosphorylation); conditions: read-out: YES_IC50
T2 construct: made in house
T2 sequence (P07947 whole entry): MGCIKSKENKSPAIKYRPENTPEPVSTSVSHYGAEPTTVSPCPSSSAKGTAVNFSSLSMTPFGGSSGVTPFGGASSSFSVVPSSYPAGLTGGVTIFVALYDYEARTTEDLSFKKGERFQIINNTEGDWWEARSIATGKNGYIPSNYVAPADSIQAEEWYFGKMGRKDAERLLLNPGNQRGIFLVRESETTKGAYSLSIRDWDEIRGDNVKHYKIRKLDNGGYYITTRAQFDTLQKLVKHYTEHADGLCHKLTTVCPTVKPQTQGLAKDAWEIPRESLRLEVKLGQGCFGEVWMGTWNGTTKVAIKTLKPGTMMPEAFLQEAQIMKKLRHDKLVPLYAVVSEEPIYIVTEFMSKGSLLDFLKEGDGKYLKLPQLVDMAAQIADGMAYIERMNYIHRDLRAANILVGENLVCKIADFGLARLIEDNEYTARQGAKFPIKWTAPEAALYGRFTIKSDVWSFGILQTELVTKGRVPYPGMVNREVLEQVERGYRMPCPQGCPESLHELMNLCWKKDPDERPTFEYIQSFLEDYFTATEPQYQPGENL
Summary of the method: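 Inhibition was expressed against a compound-free control to give IC50, using TR-FRET read-out (Eu-cryptate anti-pTyr antibody, streptavidin-XL665).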

human Src enzyme = biological target: T3, human Src enzyme (Homo sapiens, UniProt P12931); experiment: Src enzyme inhibitory activity (time-resolved fluorometry, biotinylated peptide phosphorylation); conditions: read-out: SRC_IC50
T3 construct: purchased Carna Biosciences, Inc. 08-173
T3 sequence (P12931 whole entry): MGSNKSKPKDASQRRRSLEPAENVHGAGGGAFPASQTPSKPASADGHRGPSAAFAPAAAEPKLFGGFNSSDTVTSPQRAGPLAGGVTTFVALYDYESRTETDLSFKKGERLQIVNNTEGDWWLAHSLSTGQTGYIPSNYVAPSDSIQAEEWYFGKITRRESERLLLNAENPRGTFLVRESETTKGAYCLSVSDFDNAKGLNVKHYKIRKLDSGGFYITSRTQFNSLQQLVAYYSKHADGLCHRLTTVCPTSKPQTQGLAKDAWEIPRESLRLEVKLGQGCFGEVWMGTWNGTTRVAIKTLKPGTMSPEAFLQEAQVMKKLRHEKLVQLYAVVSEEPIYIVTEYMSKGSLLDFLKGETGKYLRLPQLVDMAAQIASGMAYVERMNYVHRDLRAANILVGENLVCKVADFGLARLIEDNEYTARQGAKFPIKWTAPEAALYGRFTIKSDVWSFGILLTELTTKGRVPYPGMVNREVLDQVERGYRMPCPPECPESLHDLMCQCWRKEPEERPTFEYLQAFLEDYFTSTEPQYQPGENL
Summary of the method: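 Compounds were tested for blocking tyrosine phosphorylation of a biotinylated peptide substrate by recombinant human Src. Phosphorylated product was quantified by time-resolved fluorometry using europium cryptate and XL665 conjugates, and IC50 was calculated against the compound-free control.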

T1 sequence (P06239 whole entry): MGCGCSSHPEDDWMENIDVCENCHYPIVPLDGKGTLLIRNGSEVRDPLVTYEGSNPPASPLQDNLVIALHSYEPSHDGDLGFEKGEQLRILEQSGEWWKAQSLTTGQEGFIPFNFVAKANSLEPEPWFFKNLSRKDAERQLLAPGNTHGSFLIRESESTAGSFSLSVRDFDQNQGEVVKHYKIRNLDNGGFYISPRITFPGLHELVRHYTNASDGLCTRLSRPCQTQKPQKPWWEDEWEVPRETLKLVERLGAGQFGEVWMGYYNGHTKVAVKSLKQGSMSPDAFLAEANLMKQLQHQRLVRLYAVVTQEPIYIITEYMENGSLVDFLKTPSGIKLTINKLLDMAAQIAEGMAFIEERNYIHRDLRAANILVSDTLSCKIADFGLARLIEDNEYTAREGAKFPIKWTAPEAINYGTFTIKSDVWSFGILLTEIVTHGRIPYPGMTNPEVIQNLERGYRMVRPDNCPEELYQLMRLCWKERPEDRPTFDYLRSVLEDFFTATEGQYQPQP

Structure (SMILES)	IC50 (human Lck enzyme) [nM]	IC50 (human Yes1 enzyme) [nM]	IC50 (human Src enzyme) [nM]
Cc1cc2cc(C(=O)c3cnn(-c4cnc(Oc5ccccc5F)cc4C)c3N)[nH]c2cc1NS(=O)(=O)NC1CCOCC1 [Example 5-1-057, [5-amino-1-[6-(2-fluorophenoxy)-4-methylpyridin-3-yl]pyrazol-4-yl]-[5-methyl-6-(oxan-4-ylsulfamoylamino)-1H-indol-2-yl] methanone]	31	2	150
Cc1cc2cc(C(=O)c3cnn(-c4cnc(Oc5ccccc5F)cc4C)c3N)[nH]c2cc1NS(=O)(=O)CC(=O)NC(C)C [Example 5-1-058, 2-[[2-[5-amino-1-[6-(2-fluorophenoxy)-4-methylpyridin-3-yl]pyrazole-4-carbonyl]-5-methyl-1H-indol-6-yl]sulfamoyl]-N-propan-2-ylacetamide]	25	1.6	58
Cc1cc(Oc2cccc(F)c2)ncc1-n1ncc(C(=O)c2cc3cc(F)c(NS(=O)(=O)CCCF)cc3[nH]2)c1N [Example 5-1-059, N-[2-[5-amino-1-[6-(3-fluorophenoxy)-4-methylpyridin-3-yl]pyrazole-4-carbonyl]-5-fluoro-1H-indol-6-yl]-3-fluoropropane-1-sulfonamide]	33	3.4	130
Cc1cc(Oc2ccccc2F)nc(C)c1-n1ncc(C(=O)c2cc3cc(F)c(NS(C)(=O)=O)cc3[nH]2)c1N [Example 5-1-060, N-[2-[5-amino-1-[6-(2-fluorophenoxy)-2,4-dimethylpyridin-3-yl]pyrazole-4-carbonyl]-5-fluoro-1H-indol-6-yl]methanesulfonamide]	42	82	390
Cc1cc(Oc2ccccc2F)ccc1-n1ncc(C(=O)c2cc3cc(O)c(NS(C)(=O)=O)cc3[nH]2)c1N [Example 5-1-061, N-[2-[5-amino-1-[4-(2-fluorophenoxy)-2-methylphenyl]pyrazole-4-carbonyl]-5-hydroxy-1H-indol-6-yl]methanesulfonamide]	7	0.96	12
Cc1cc2cc(C(=O)c3cnn(-c4ccc(Oc5ncccc5Cl)cc4Cl)c3N)[nH]c2cc1N1CCCS1(=O)=O [Example 5-1-062, [5-amino-1-[2-chloro-4-(3-chloropyridin-2-yl)oxyphenyl]pyrazol-4-yl]-[6-(1,1-dioxo-1,2-thiazolidin-2-yl)-5-methyl-1H-indol-2-yl] methanone]	13	2.4	48
Cc1cc2cc(C(=O)c3cnn(-c4ccc(Oc5ncccc5Cl)cc4Cl)c3N)[nH]c2cc1NS(=O)(=O)CCCF [Example 5-1-063, N-[2-[5-amino-1-[2-chloro-4-(3-chloropyridin-2-yl)oxyphenyl]pyrazole-4-carbonyl]-5-methyl-1H-indol-6-yl]-3-fluoropropane-1-sulfonamide]	29	2.8	83
Cc1cc2cc(C(=O)c3cnn(-c4cnc(Oc5ccc(F)cc5)cc4C)c3N)[nH]c2cc1NS(=O)(=O)N1CCOCC1 [Example 5-1-064, N-[2-[5-amino-1-[6-(4-fluorophenoxy)-4-methylpyridin-3-yl]pyrazole-4-carbonyl]-5-methyl-1H-indol-6-yl]morpholine-4-sulfonamide]	260	24	340
Cc1cc2cc(C(=O)c3cnn(-c4ccc(Oc5ncccc5Cl)cc4Cl)c3N)[nH]c2cc1NS(=O)(=O)N1CCOCC1 [Example 5-1-065, N-[2-[5-amino-1-[2-chloro-4-(3-chloropyridin-2-yl)oxyphenyl]pyrazole-4-carbonyl]-5-methyl-1H-indol-6-yl]morpholine-4-sulfonamide]	120	7.7	350
Cc1cc2cc(C(=O)c3cnn(-c4c(C)cc(Oc5cccc(F)c5F)cc4F)c3N)[nH]c2cc1NS(=O)(=O)N1CCOCC1 [Example 5-1-066, N-[2-[5-amino-1-[4-(2,3-difluorophenoxy)-2-fluoro-6-methylphenyl]pyrazole-4-carbonyl]-5-methyl-1H-indol-6-yl]morpholine-4-sulfonamide]	77	2.7	210
